Earlier results as cited in patent US8071623B2, “Amide substituted indazoles as poly(ADP-ribose)polymerase(PARP) inhibitors” (Instituto di Ricerche di Biologia Molecolare P. Angeletti …, priority 2007, dated 2011).

Tested on: ischemia and reperfusion of the heart
Conditions: rabbits

SMILES	reduced infarct size (single injection 1 mg/kg)	reductions in infarct size in the heart (single injection 10 mg/kg, one minute before occlusion or one minute before reperfusion)
Oc1cccc2c(O)nccc12 [1,5-dihydroxyisoquinoline]	38-48%	
NC(=O)c1cccc(N)c1 [3-amino-benzamide]		32-42%
